Melting point data for 86 compounds are collected here from a melting point compilation (Tetko et al.; mined from patent text by program, amines drawn as free bases though some values may be those of a salt).

By melting point is commonly meant the temperature, or range, at which the solid turns liquid.

In the case of `CC(C)(Cc1ccccc1)OC(=O)Nc1ccc(-c2ncn(-c3ccc(OC(F)(F)F)cc3)n2)cc1`, the melting point is 153 to 155 °C.
For `COC(=O)[C@H](O)[C@@H](NC(=O)OC(C)(C)C)c1ccccc1`, the melting point lay in the range of 130 to 132 °C.
The compound `CCCn1c(=O)c2c(nc(/C=C/c3ccco3)n2C)n(CCC)c1=O` came in with a melting point of 161 to 162 °C.
Compound `CCc1nc2c(N3CCOCC3)ncn(CC)c-2n1` registered a melting point of 103 to 107 °C.
The compound `Cc1cccc(C(=O)CC(Cc2ccccc2)C(=O)O)c1` (stereo unspecified) had a melting point of 158 to 161 °C.
As for `CCOC(=O)c1c(COc2cccc(C)n2)nc2cc(OC)c(OC)cc2c1-c1ccc(OC)c(OC)c1`, the melting point was in the range of 173 to 174 °C.
`CCN(CC)Cc1cc(C(N)=O)ccc1N`: the melting point is 129 to 131 °C.
`Cc1ccc(C(=O)Nc2c(NC(=O)CN3CCCC3)ccc3c2C(=O)c2ccccc2C3=O)cc1` registered a melting point of 193 to 194 °C.
Turning to `COc1ccc(CNc2ncc3c(n2)N(c2ccccc2)C(=O)N(c2c(Cl)cccc2Cl)C3)cc1`, the melting point is 56 °C.
The result for `CCCCCc1cc2c(nc(O)n2CC2CCN(C(C)=O)CC2)c(N)n1` reads 228 to 231 °C; that for `c1ccc(OCCSCc2nnc(-c3ccc(OCCCCN4CCCCCC4)cc3)o2)cc1`, 35 to 38 °C; that for `O=S1(=O)NC=Nc2c(Br)cc(Br)cc21`, 289 to 292 °C.
For `CC(=C1SCCCS1)c1ccc(Oc2ccc(S(C)=O)cc2)cc1` (stereo unspecified), the melting point is 132 °C.
For the compound `CCC(CC)c1nn(-c2ccc(Cl)cn2)cc1CCCOc1c(CC(=O)O)cccc1OC`, the melting point lay within 85 to 86 °C.
As to `O=C1C2=C(c3ccccc3)N(c3ccccc3)C(=O)C2=C(c2ccccc2)N1c1ccccc1`, the melting point was above 300 °C.
As to `O=C1Nc2ccc(Br)cc2/C1=C/c1ccc[nH]1`, the melting point lay within 267 to 268 °C.
For `Cc1cccc(C)c1/N=C1\SCC(=O)N1N`, the melting point is 149 to 152 °C.
In turn, `CC(C)(C)c1cc(C(=O)c2ncc[nH]2)cc(C(C)(C)C)c1O` gave a melting point of 286 to 288 °C.
In the case of `O=C(Cl)c1ccc(-c2ccc(C(=O)Cl)cn2)nc1`, the melting point fell in the range of 216 to 217 °C.
`Cc1ccc(OCCCl)c(C(N)=O)c1`: the melting point lay within 111 to 113 °C.
Compound `CCOC(=O)Cn1c(=O)oc2c(O)cccc21` registered a melting point of 150 to 152 °C.
`CC#CCOc1cc(Nc2ccccc2)ncn1`: the melting point was found to be 159 °C.
`Cc1cc(C)n(-c2nc(Nc3ccc(Cl)cc3)cc(N3CCOCC3)n2)n1` registered a melting point of 186 to 187 °C.
For the compound `CC12CCC3c4ccc(OC(=O)c5cccnc5)cc4CCC3C1CCC2OC(=O)c1cccnc1` (stereo unspecified), the melting point lay in the range of 148 to 150 °C.
The figure for `O=C(NC1CCCCC1)c1c(O)c2ccccc2n(Cc2ccc(F)cc2)c1=O` is 168 °C.
For `CN(C)C=Nc1nc(OC(=O)c2ccccc2)ncc1F`, the melting point fell in the range of 136 to 138 °C.
In turn, `CCS(=O)(=O)CCC(=O)NNC(=O)N1Cc2cccc(Cl)c2Oc2ccccc21` showed a melting point of 195 to 197 °C.
`CCCCOC(=O)COc1ccc(C(=O)Nc2cccc(Cl)c2Cl)cc1`: the melting point lay within 132 to 136 °C.
In turn, `OCCOCCn1ccc2ncnc(Nc3ccc(Oc4cccc(C(F)(F)F)c4)c(Cl)c3)c21` had a melting point of 130 to 132 °C.
Turning to `CCOC(=O)CN1C(=O)c2cccc3cccc(c23)C1=O`, the melting point was 160 to 162 °C.
In the case of `CCC(CC)Nc1cc(C)nc2c1CCC(=O)N2c1c(C)cc(C)cc1C`, the melting point lay in the range of 124 to 126 °C.
`CC(=O)OCCC1CCCN(C(=O)c2ccc(NC(=O)c3ccccc3Cl)nc2)c2ccc(Cl)cc21` (stereo unspecified) returned a melting point of 151 to 153 °C.
Consider `Cc1ccc(S(=O)(=O)NC(=O)C(C)(NC(=O)NN(C)C)C(C)C)cc1` (stereo unspecified), for which the melting point was in the range of 96 to 98 °C.
On to `CN1CC(Cn2cncn2)CC2c3cccc4[nH]cc(c34)CC21` (stereo unspecified), for which the melting point lay within 245 to 253 °C.
`COc1cc(C=O)c(OC)c2c1C(C)(C)CCC2(C)C`: the melting point was in the range of 55 to 57 °C.
`Clc1nc(-c2ccco2)c2ncn(Cc3ccc(Cl)c(Cl)c3)c2n1` showed a melting point of 191 to 193 °C.
With `C=CCCNCc1nnc2n1-c1ccc(Cl)cc1C(c1ccccc1)=NC2`, the melting point fell in the range of 157 to 160 °C.
`Cn1cc(-c2cccc(N3Cc4cc(C(C)(C)C)ccc4C3=O)c2CO)cc(Nc2cc(C3CC3)n[nH]2)c1=O`: the melting point is 178 to 180 °C.
The result for `Cc1cnc2cc(NS(=O)(=O)c3cccc(Cl)c3C)ccc2n1` reads 159 °C; that for `CCCCCCCC(CCCCCC)CCOC(=O)c1ccccc1N=NN1CCOCC1` (stereo unspecified), 40 to 42 °C; that for `COC(=O)N[C@H](C(=O)NC(Cc1ccccc1)C(O)CNCC(O)[C@@H](Cc1ccc(OCCc2ccccn2)cc1)NC(=O)OC(C)(C)C)C(C)(C)C` (relative stereo), 139 to 141 °C.
`NS(=O)(=O)c1ccc(-n2nc(C(F)(F)F)c(C3CC3)c2-c2ccccc2)cc1` gave a melting point of 173 to 174 °C.
Compound `COc1cc(-c2nc(N)sc2SCC2CCCCC2)c(OC)cc1C` yielded a melting point of 111 to 112 °C.
As for `CCCc1c(OCCCSc2ccc(C(=O)CCC(=O)O)cc2)ccc(C(C)=O)c1OC(C)=O`, the melting point is 121 to 123 °C.
In turn, `Cc1cc(-c2nnc3c4ccccc4c(OCc4ccccn4)nn23)no1` came in with a melting point of 234 to 236 °C.
On to `S=C(N1CCCCC1)C1(c2ccccn2)CCCS1` (stereo unspecified), for which the melting point amounted to 90 °C.
The result for `CN1C(=O)C2(COc3cc4c(cc32)OCCO4)c2c(Oc3ncccc3C(F)(F)F)cccc21` (stereo unspecified) reads above 250 °C; that for `C=C(C)C(=O)[C@@H]1CCCC[C@H]1C(=O)OC(c1ccccc1)c1ccccc1` (relative stereo), 90 to 95 °C; that for `CCC(C=CC(C)C1CCC2C3CCC4=CC(=O)CCC4(C)C3CCC12C)C(C)C` (stereo unspecified), 121 to 123 °C.
For `NC(=O)c1cn(C(CO)CCc2cccc(C(F)(F)F)c2)cn1` (stereo unspecified), the melting point fell in the range of 103 to 106 °C.
The result for `C1=C(/C=C/c2ccccc2)CCN(Cc2c[nH]c3ccccc23)C1` reads 191 to 193 °C; that for `CC(CS(=O)(=O)c1ccccc1)C1CCC2C3CC=C4CC(O)CC(O)C4(C)C3CCC12C` (stereo unspecified), 214 °C.
`CC(C)Oc1cc(CCC(=O)NS(=O)(=O)c2ccccc2)n(Cc2ccc(Cl)cc2Cl)n1` registered a melting point of 184 to 185 °C.
The figure for `O=S1(=O)c2cccc3c(Cl)ccc(c23)N1CCCN1CC=C(c2ccccc2)CC1` is 135 °C; for `COc1ccc(C(=O)Cc2ccncc2Cl)cc1OC1CCCC1` it is 124 to 125 °C; for `CC(=O)Nc1ccc(-c2c(NC(C)=O)n(C)c3ccccc23)cc1` it is 234 to 237 °C.
The compound `CC(C)(C)NS(=O)(=O)c1cccc2c1CSC2=O` had a melting point of 121 to 124 °C.
On to `CN(C)Cc1ccc(CSCCNC(=O)C=CC(=O)NCCCOc2cccc(CN3CCCC3)c2)o1`, for which the melting point was 126 to 128 °C.
Consider `COc1ccc2cc(-c3ccnc(NCCc4ccc(OC)c(OC)c4)n3)cc(N3CCNCC3)c2c1`, for which the melting point lay in the range of 138 to 140 °C.
Take `COC(=O)NC1=NC(c2cccc(C(F)(F)F)c2)CN1` (stereo unspecified): the melting point was in the range of 173 to 174 °C.
`CC(C)c1ccc2cc(C(=O)Nc3ccc(OCC(C)(C)C)c(C#N)c3)sc2n1` showed a melting point of 244 to 245 °C.
Turning to `CCCc1nc(SC(F)F)c(C(=O)O)n1Cc1ccc(-c2ccccc2S(=O)(=O)NC(=O)NCc2cccs2)cc1`, the melting point is 142 °C.
`CN1CCC(=O)C(C2c3ccccc3C=Cc3ccccc32)C1` (stereo unspecified) came in with a melting point of 144 to 158 °C.
On to `CN1CCC(OC2c3ccc(Br)cc3CCn3cc(-c4ccccc4)nc32)CC1` (stereo unspecified), for which the melting point was found to be 92 °C.
The figure for `COc1cccc(CSCCNC(=O)c2c(Cl)cccc2Cl)c1OC` is 108 to 110 °C.
Regarding `O=C1c2ccccc2C(=O)c2c(Nc3ccc(O)cc3)ccc(Nc3ccc(O)cc3)c21`, the melting point was 340 to 342 °C.
Regarding `CC(=O)N1CCCN(NC(=O)c2ccc(F)cc2)CC1`, the melting point fell in the range of 117 to 119 °C.
For the compound `Cc1ccc2cc(C(=O)NC3(C(=O)O)CCCC3)sc2c1`, the melting point was in the range of 214 to 217 °C.
On to `CCC(C(=O)O)c1ccccc1Br` (stereo unspecified), for which the melting point is 37 to 39 °C.
The compound `COc1c(Cl)nc(N2CCOCC2)nc1Cl` returned a melting point of 116 °C.
Compound `C=CCC(CC)(NC)C(=O)c1ccc(OCCO)cc1` (stereo unspecified) yielded a melting point of 80 to 82 °C.
The result for `O=C(O)c1[nH]c2cc(Cl)cc(Cl)c2c1C=C1CCNN(c2ccccc2)C1=O` reads above 250 °C; that for `COc1cc(CO)ccc1OCc1nc(-c2cccc(C#N)c2)oc1C`, 113 to 115 °C; that for `COC(=O)c1cc(C)c(OCCNC(=O)C2Cc3ccccc3N2S(=O)(=O)c2ccc(-c3ccc(F)cc3)cc2)c(C)c1` (stereo unspecified), 91 °C.
For `O=C1CN(c2ccc(Cl)cc2)C(=O)N1S(=O)(=O)c1ccc(Cl)cc1`, the melting point was 239 to 240 °C.
As for `COc1ccc(C=O)c(-c2ccc(O[Si](C)(C)C(C)(C)C)cc2)c1O`, the melting point lay within 103 to 106 °C.
The figure for `Clc1cc(Cl)c2c(c1)CCC(N1CCCC1)=C2` is 84.5 to 85.5 °C; for `CCOC(=O)CCCCCSc1nnc(S)s1` it is 79 to 80 °C; for `CNc1nc(-c2cccc(NC(=O)c3ccccc3O)c2)c2cc(OC)c(OC)cc2n1` it is 212 to 214 °C.
`O=C1NC(=O)C(c2c[nH]c3ccc(Br)cc23)C1c1cc2c3c(ccn3CCC2)c1` (stereo unspecified) gave a melting point of 195 to 200 °C.
Consider `Cn1ncnc1COc1nn2c(-c3c(F)cccc3F)nncc2c1-c1ccccc1`, for which the melting point turned out to be 179 °C.
In turn, `CCOC(=O)c1c(C)nc(N2CCN(C)CC2)c([N+](=O)[O-])c1N` showed a melting point of 73 to 75 °C.
Take `CC(=O)c1c2c(cc3c1CCC3)CCC2`: the melting point fell in the range of 69.1 to 76.1 °C.
Compound `O=C(OCC12CCCN(CCC1)C2)c1c[nH]c2ccccc12` came in with a melting point of 207 to 209 °C.
Turning to `Cc1cc(C)nc(COc2ccc3c(c2)c(SC(C)(C)C)c(CC(C)(C)C(=O)O)n3Cc2ccc(Cl)cc2)n1`, the melting point lay within 213 to 215 °C.
In turn, `CC(CO)N1CC(COc2cccc(Cl)c2)OC1=O` (stereo unspecified) displayed a melting point of 76 to 78 °C.
